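GI50 = concentration required for 50% inhibition of growth. TGI denotes the concentration required for complete inhibition of growth.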
Tests used:
Assay in all cases: NCI tumour cell line growth inhibition, 384-well format
NCI-H322M lung = tested on: NCI-H322M lung
M14 melanoma = tested on: M14 melanoma
HL-60(TB) leukemia = tested on: HL-60(TB) leukemia
NCI-H460 NSCLC = tested on: NCI-H460 NSCLC
RPMI-8226 leukemia = tested on: RPMI-8226 leukemia
TK-10 renal = tested on: TK-10 renal
MALME-3M melanoma = tested on: MALME-3M melanoma
786-0 renal = tested on: 786-0 renal
CAKI-1 renal = tested on: CAKI-1 renal
A549 NSCLC = tested on: A549 NSCLC
MOLT-4 leukemia = tested on: MOLT-4 leukemia
UO-31 renal = tested on: UO-31 renal
MCF7 breast = tested on: MCF7 breast
NCI/ADR-RES ovarian = tested on: NCI/ADR-RES ovarian
SNB-19 CNS = tested on: SNB-19 CNS
MDA-MB-468 breast = tested on: MDA-MB-468 breast
SF-295 CNS = tested on: SF-295 CNS
NCI-H226 lung = tested on: NCI-H226 lung
EKVX NSCLC = tested on: EKVX NSCLC
HT29 colon = tested on: HT29 colon
SN12C renal = tested on: SN12C renal
OVCAR-5 ovarian = tested on: OVCAR-5 ovarian
IGROV1 ovarian = tested on: IGROV1 ovarian
SNB-75 CNS = tested on: SNB-75 CNS
MDA-MB-231 breast = tested on: MDA-MB-231 breast
K-562 leukemia = tested on: K-562 leukemia
BT-549 breast = tested on: BT-549 breast
NCI-H23 lung = tested on: NCI-H23 lung
DU-145 prostate = tested on: DU-145 prostate
HCC-2998 colon = tested on: HCC-2998 colon
ACHN renal = tested on: ACHN renal
HCT-15 colon = tested on: HCT-15 colon
OVCAR-3 ovarian = tested on: OVCAR-3 ovarian
SK-MEL-28 melanoma = tested on: SK-MEL-28 melanoma
SK-MEL-5 melanoma = tested on: SK-MEL-5 melanoma
COLO 205 colon = tested on: COLO 205 colon
SF-268 CNS = tested on: SF-268 CNS
HS 578T breast = tested on: HS 578T breast
SK-OV-3 ovarian = tested on: SK-OV-3 ovarian
RXF 393 renal = tested on: RXF 393 renal
PC-3 prostate = tested on: PC-3 prostate
UACC-257 melanoma = tested on: UACC-257 melanoma
OVCAR-4 ovarian = tested on: OVCAR-4 ovarian
UACC-62 melanoma = tested on: UACC-62 melanoma
SR leukemia = tested on: SR leukemia
HOP-62 NSCLC = tested on: HOP-62 NSCLC
T-47D breast = tested on: T-47D breast
MDA-MB-435 melanoma = tested on: MDA-MB-435 melanoma
HOP-92 NSCLC = tested on: HOP-92 NSCLC
SW-620 colon = tested on: SW-620 colon
KM12 colon = tested on: KM12 colon
OVCAR-8 ovarian = tested on: OVCAR-8 ovarian
NCI-H522 lung = tested on: NCI-H522 lung
SF-539 CNS = tested on: SF-539 CNS
LOX IMVI melanoma = tested on: LOX IMVI melanoma
A498 renal = tested on: A498 renal
CCRF-CEM leukemia = tested on: CCRF-CEM leukemia

COc1cc2c(cc1-c1c(C)noc1C)cc(C)c(=O)n2Cc1ccccn1
GI50 (NCI-H322M lung): 1090 nM | TGI (NCI-H322M lung): 31700 nM | GI50 (M14 melanoma): 600 nM | TGI (M14 melanoma): 21800 nM | GI50 (HL-60(TB) leukemia): 118 nM | TGI (HL-60(TB) leukemia): 255 nM | GI50 (NCI-H460 NSCLC): 2120 nM | TGI (NCI-H460 NSCLC): 17500 nM | GI50 (RPMI-8226 leukemia): 106 nM | TGI (RPMI-8226 leukemia): 316 nM | GI50 (TK-10 renal): 367 nM | TGI (TK-10 renal): 3810 nM | GI50 (MALME-3M melanoma): 274 nM | TGI (MALME-3M melanoma): 2180 nM | GI50 ([…]-0 renal): 812 nM | TGI (786-0 renal): 19200 nM | GI50 (CAKI-1 renal): 342 nM | TGI (CAKI-1 renal): 18500 nM | GI50 (A549 NSCLC): 557 nM | TGI (A549 NSCLC): 18300 nM | GI50 (MOLT-4 leukemia): 616 nM | TGI (MOLT-4 leukemia): 1920 nM | GI50 (UO-31 renal): 2890 nM | TGI (UO-31 renal): > 100000 nM | GI50 (MCF7 breast): 257 nM | TGI (MCF7 breast): 2480 nM | GI50 (NCI/ADR-RES ovarian): 371 nM | TGI (NCI/ADR-RES ovarian): 2470 nM | GI50 (SNB-19 CNS): 1130 nM | TGI (SNB-19 CNS): 23600 nM | GI50 (MDA-MB-468 breast): 226 nM | TGI (MDA-MB-468 breast): 693 nM | GI50 (SF-295 CNS): 1750 nM | TGI (SF-295 CNS): 24900 nM | GI50 (NCI-H226 lung): 646 nM | TGI (NCI-H226 lung): 5740 nM | GI50 (EKVX NSCLC): 4540 nM | TGI (EKVX NSCLC): > 100000 nM | GI50 (HT29 colon): 376 nM | TGI (HT29 colon): 5680 nM | GI50 (SN12C renal): 2180 nM | TGI (SN12C renal): 21500 nM | GI50 (OVCAR-5 ovarian): 496 nM | TGI (OVCAR-5 ovarian): 21300 nM | GI50 (IGROV1 ovarian): 566 nM | TGI (IGROV1 ovarian): 3330 nM | GI50 (SNB-75 CNS): 487 nM | TGI (SNB-75 CNS): > 100000 nM | GI50 (MDA-MB-231 breast): 367 nM | TGI (MDA-MB-231 breast): 16200 nM | GI50 (K-562 leukemia): 448 nM | TGI (K-562 leukemia): 2780 nM | GI50 (BT-549 breast): 262 nM | TGI (BT-549 breast): 1680 nM | GI50 (NCI-H23 lung): 742 nM | TGI (NCI-H23 lung): 5190 nM | GI50 (DU-145 prostate): 6450 nM | TGI (DU-145 prostate): > 100000 nM | GI50 (HCC-2998 colon): 324 nM | TGI (HCC-2998 colon): 1410 nM | GI50 (ACHN renal): 1050 nM | TGI (ACHN renal): > 100000 nM | GI50 (HCT-15 colon): 282 nM | TGI (HCT-15 colon): 1550 nM | GI50 (OVCAR-3 ovarian): 374 nM | TGI (OVCAR-3 ovarian): 1650 nM | GI50 (SK-MEL-28 melanoma): 628 nM | TGI (SK-MEL-28 melanoma): 6770 nM | GI50 (SK-MEL-5 melanoma): 527 nM | TGI (SK-MEL-5 melanoma): 2380 nM | GI50 (COLO 205 colon): 498 nM | TGI (COLO 205 colon): 13300 nM | GI50 (SF-268 CNS): 2010 nM | TGI (SF-268 CNS): 11300 nM | GI50 (HS 578T breast): 192 nM | TGI (HS 578T breast): 671 nM | GI50 (SK-OV-3 ovarian): 433 nM | TGI (SK-OV-3 ovarian): 3610 nM | GI50 (RXF 393 renal): 1980 nM | TGI (RXF 393 renal): 15300 nM | GI50 (PC-3 prostate): 1820 nM | TGI (PC-3 prostate): > 100000 nM | GI50 (UACC-257 melanoma): 373 nM | TGI (UACC-257 melanoma): 4710 nM | GI50 (OVCAR-4 ovarian): 188 nM | TGI (OVCAR-4 ovarian): 586 nM | GI50 (UACC-62 melanoma): 190 nM | TGI (UACC-62 melanoma): 1440 nM | GI50 (SR leukemia): 140 nM | TGI (SR leukemia): 1150 nM | GI50 (HOP-62 NSCLC): 415 nM | TGI (HOP-62 NSCLC): 16500 nM | GI50 (T-47D breast): 313 nM | TGI (T-47D breast): 3060 nM | GI50 (MDA-MB-435 melanoma): 1010 nM | TGI (MDA-MB-435 melanoma): 2420 nM | GI50 (HOP-92 NSCLC): 234 nM | TGI (HOP-92 NSCLC): 4540 nM | GI50 (SW-620 colon): 1680 nM | TGI (SW-620 colon): 14400 nM | GI50 (KM12 colon): 691 nM | TGI (KM12 colon): 20300 nM | GI50 (OVCAR-8 ovarian): 430 nM | TGI (OVCAR-8 ovarian): 9450 nM | GI50 (NCI-H522 lung): 202 nM | TGI (NCI-H522 lung): 817 nM | GI50 (SF-539 CNS): 805 nM | TGI (SF-539 CNS): 7540 nM | GI50 (LOX IMVI melanoma): 321 nM | TGI (LOX IMVI melanoma): 1090 nM | GI50 (A498 renal): 418 nM | TGI (A498 renal): 12400 nM | GI50 (CCRF-CEM leukemia): 338 nM | TGI (CCRF-CEM leukemia): 1650 nM

Reference: PubChem BioAssay (NCI)
